Starred links: 1 amine or outer side, 2 acyl side, 3 side chain; linkers in the order of their positions; H or OH if unused. Non-standard residues stand in square brackets, D forms with d. Residues, ends and D or L forms follow the SMILES beside them. *: point of attachment. DOTA = O=C(O)CN1CCN(CC(=O)O)CCN(CC(=O)*)CCN(CC(=O)O)CC1; X1 = C[C@@H](C(=O)[*:2])n1cc([C@@H](CCC(=O)O)N[*:1])nn1; X2 = O=C(Cn1cc([C@H](Cc2ccc(O)cc2)N[*:1])nn1)[*:2]; Nle = CCCC[C@H](N)C(=O)O
Key:
A431-CCK2R cells [1] = experiment: cell binding and internalization; assay type: cell-based; conditions: for internalized blocked / membrane-bound blocked: 6000-fold excess of minigastrin; for internalized specific / membrane-bound specific: total minus blocked
From the text: (§1) Procedures for (radio)metal labeling of the DOTA–minigastrin conjugates with ^177Lu^3+ and ^natLu^3+, cell culturing of A431-CCK2R cells, cell internalization (including blocking experiments with excess minigastrin (H-LE5AYGWMDF-NH2)), competition binding assays (IC50), stability measurements in human blood plasma, and determinations of logDpH 7.4 have been reported previously for the in vitro evaluation of TZMGs and were applied to NMGs without alteration.
(§2) Figure 2 (A) Total internalization of ^177Lu-labeled conjugates (2 nM, 5 kBq) in […] cells over 4 h (n = 3–4 in triplicate). […] Data points show mean value ± standard deviation.
Cell Internalization Data
Cell internalization was determined and analyzed as described in Grob, et al., J Med Chem, 2020.1 Specific values result from values of total internalization or cell binding minus values obtained in presence of a 6000-fold excess of minigas- […]
Incubation time membrane-bound internalized total blocked specific total blocked specific
Table S3: Complete Internalization Data for 177Lu-labeled NMG 1 as mean ± standard deviation from n = 3–4 in triplicates.
Table S4: Complete Internalization Data for 177Lu-labeled NMG 2 as mean ± standard deviation from n = 3–4 in triplicates.
Table S5: Complete Internalization Data for 177Lu-labeled NMG 3 as mean ± standard deviation from n = 3–4 in triplicates.

[2] = logD pH 7.4 determination; assay type: physicochemical; conditions: 177Lu-labeled
From the text: as §1

A431-CCK2R cells [3] = experiment: cell binding and internalization; assay type: cell-based; conditions: 177Lu-labeled, % of applied radioactivity
[4] = tested on: A431-CCK2R cells xenografts; experiment: SPECT/CT imaging of mice with tumor xenografts; assay type: in vivo, female CD1-nu mice; conditions: 24 h p.i.
Protocol: 10–14 days prior to the experiment, 6-week-old female CD1-nu mice were inoculated with 5 × 10^6 A431-CCK2R cells (0.1 mL, 5 × 10^7 cells/mL in PBS) subcutaneously in both shoulders. The mice were randomly assigned to groups of two animals. On the day of the experiment, ^177Lu-labeled conjugates (200 pmol, 100 µL, 2 µM in PBS, 20 MBq, 20 µg/kg) were injected via the tail vein. The mice were kept with food and water ad libitum. SPECT scans of 40 min (1 and 4 h p.i., frame duration 60 sec) or 60 min (24 h p.i., frame duration 80 sec) were acquired after an initial CT scan of 7.5 min (CT tube voltage 55 kV, CT tube current 145 µA) with a multi-pinhole NanoSPECT/CTplus (Bioscan Inc., […], and Mediso, Hungary). For the duration of the SPECT/CT scans, mice were kept under anesthesia with a mixture of isoflurane (1.5–2.5%) and oxygen and warmed by a constant air flow of 37 °C. The images were reconstructed with HiSPECT and analyzed in VivoQuant. A post-reconstruction filter was applied (Gauss, full width at half max, 1 mm) to the SPECT images, and the scale was adjusted to visualize important organs and tissues (0.001–0.004 kBq/voxel). n = 2 animals per group.

[5] = tested on: xenografts of A431-CCK2R cells; experiment: biodistribution in mice with CCK2R-positive xenografts; assay type: in vivo, female CD1-nu mice
Protocol: Procedures for biodistribution studies with ^177Lu-labeled conjugates (10 pmol, 100 µL, 0.1 µM in PBS, 0.5 MBq, 1 µg/kg) in female CD1-nu mice with xenografts of A431-CCK2R cells at 1, 4, and 24 h p.i., as well as blocking experiments at 4 h p.i. with a 6000-fold excess of minigastrin have been reported previously and were followed without modifications. Statistical analysis was performed via GraphPad Prism using two-sided analysis of variance. n = 4 animals per group.

CCK2R = target: T1, CCK2R (Homo sapiens, UniProt P32239); experiment: competition binding assay (receptor displacement of 177Lu-PP-F11N); conditions: read-out: IC50 (95% CI); 175Lu-labeled; displacement of 177Lu-PP-F11N (2 nM) on A431-CCK2R cells
T1 construct: expressed in transfected cells; host or cells: A431-CCK2R cells
T1 sequence (P32239 1-447): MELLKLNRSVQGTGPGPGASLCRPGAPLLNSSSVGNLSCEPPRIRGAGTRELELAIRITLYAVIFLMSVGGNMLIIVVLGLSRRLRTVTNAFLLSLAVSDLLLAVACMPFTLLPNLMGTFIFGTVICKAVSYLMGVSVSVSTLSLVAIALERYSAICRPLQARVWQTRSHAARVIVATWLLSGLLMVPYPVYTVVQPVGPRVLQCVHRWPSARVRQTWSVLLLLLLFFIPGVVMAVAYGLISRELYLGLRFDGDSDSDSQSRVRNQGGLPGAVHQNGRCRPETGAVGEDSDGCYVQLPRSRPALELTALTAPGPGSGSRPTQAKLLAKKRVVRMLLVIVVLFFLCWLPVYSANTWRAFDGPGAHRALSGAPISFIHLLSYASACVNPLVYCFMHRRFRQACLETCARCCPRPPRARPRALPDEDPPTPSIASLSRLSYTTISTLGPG
From the text: as §1, §2

IC50 (CCK2R): 2 nM
Compound: CCCC[C@H](NC(=O)[C@H](Cc1c[nH]c2ccccc12)NC(=O)Cn1cc([C@H](Cc2ccc(O)cc2)NC(=O)[C@H](C)n2cc([C@@H](CCC(=O)O)NC(=O)[C@@H](CCC(=O)O)NC(=O)[C@@H](CCC(=O)O)NC(=O)[C@@H](CCC(=O)O)NC(=O)[C@@H](CCC(=O)O)NC(=O)[C@@H](CCC(=O)O)NC(=O)CN3CCN(CC(=O)O)CCN(CC(=O)O)CCN(CC(=O)O)CC3)nn2)nn1)C(=O)N[C@@H](CC(=O)O)C(=O)N[C@@H](Cc1ccccc1)C(N)=O [NMG 3, DOTA-(DGlu)6 -Ψ[Tz]-Ala-Tyr-Ψ[Tz]-Gly-Trp-Nle-Asp-Phe-NH2] ({DOTA}-[dE][dE][dE][dE][dE][X1][X2]W[Nle]DF-NH2)
internalized total (A431-CCK2R cells [1]; 0.5 h): 33.9 ± 1.1%
membrane-bound total (A431-CCK2R cells [1]; 0.5 h): 7.7 ± 0.8%
internalized blocked (A431-CCK2R cells [1]; 0.5 h): 0.4 ± 0.3%
membrane-bound blocked (A431-CCK2R cells [1]; 0.5 h): 0.9 ± 0.3%
internalized specific (A431-CCK2R cells [1]; 0.5 h): 33.5 ± 1.1%
membrane-bound specific (A431-CCK2R cells [1]; 0.5 h): 6.8 ± 1.0%
internalized total (A431-CCK2R cells [1]; 1 h): 57.2 ± 2.3%
membrane-bound total (A431-CCK2R cells [1]; 1 h): 6.4 ± 0.3%
internalized blocked (A431-CCK2R cells [1]; 1 h): 0.7 ± 0.3%
membrane-bound blocked (A431-CCK2R cells [1]; 1 h): 0.9 ± 0.3%
internalized specific (A431-CCK2R cells [1]; 1 h): 56.5 ± 2.1%
membrane-bound specific (A431-CCK2R cells [1]; 1 h): 5.5 ± 0.4%
internalized total (A431-CCK2R cells [1]; 2 h): 73.4 ± 1.3%
membrane-bound total (A431-CCK2R cells [1]; 2 h): 4.0 ± 0.6%
internalized blocked (A431-CCK2R cells [1]; 2 h): 5.5 ± 3.9%
membrane-bound blocked (A431-CCK2R cells [1]; 2 h): 1.8 ± 1.3%
internalized specific (A431-CCK2R cells [1]; 2 h): 67.9 ± 3.4%
membrane-bound specific (A431-CCK2R cells [1]; 2 h): 2.2 ± 1.3%
membrane-bound total (A431-CCK2R cells [1]; 4 h): 3.2 ± 0.3%
internalized blocked (A431-CCK2R cells [1]; 4 h): 18.4 ± 4.3%
membrane-bound blocked (A431-CCK2R cells [1]; 4 h): 2.4 ± 0.6%
internalized specific (A431-CCK2R cells [1]; 4 h): 57.7 ± 4.2%
membrane-bound specific (A431-CCK2R cells [1]; 4 h): 0.8 ± 0.6%
cell-associated radioactivity (A431-CCK2R cells [1]; after 4 h of incubation): ~80%
logDpH 7.4 [2]: -3.95 ± 0.42
Internalization 4 h Total (%) (A431-CCK2R cells [3]): 76.5 ± 2.8%
visualization of tumor xenografts by SPECT/CT [4]: clearly visualized
Tumor washout: tumor uptake relative to 1h ([5]; 4 h): 73%
Tumor washout: tumor uptake relative to 1h ([5]; 24 h): 56%
Blood uptake ([5]; female, CD1-nu, mouse, in vivo, 10 pmol, 1 h): < 0.5 % i.A./g
